Data from ChEMBL document CHEMBL3217422, “Design of membrane targeting tobramycin-based cationic amphiphiles with reduced hemolytic activity” (Medchemcomm, 2013).
≈ marks a conversion by molar mass, not a printed value.

Experiments:
[1] = Induction of hemolysis in rat RBC assessed as hemoglobin release at 32 to 128 ug/ml after 1 hr by microplate reader analysis; type: cell-based; details: erythrocyte
[2] = test system: Staphylococcus epidermidis; experiment: Antibacterial activity against Staphylococcus epidermidis ATCC 35984 assessed as biofilm growth inhibition after 24 hrs by double dilution method; type: functional
[3] = test system: Streptococcus mutans; experiment: Antibacterial activity against Streptococcus mutans UA159 assessed as biofilm growth inhibition after 24 hrs by double dilution method; type: functional
[4] = test system: Shigella sonnei; experiment: Antibacterial activity against O-antigen negative Shigella sonnei clinical isolate 6831 assessed as growth inhibition after 24 hrs by double dilution method; type: functional; details: isolate 6831, 24 h
[5] = test system: Shigella sonnei; experiment: Antibacterial activity against O-antigen positive Shigella sonnei clinical isolate 6831 assessed as growth inhibition after 24 hrs by double dilution method; type: functional; details: isolate 6831, 24 h
[6] = test system: Pseudomonas aeruginosa; experiment: Antibacterial activity against Pseudomonas aeruginosa ATCC 33347 assessed as growth inhibition after 24 hrs by double dilution method; type: functional; details: ATCC 33347, 24 h
[7] = test system: Staphylococcus epidermidis; experiment: Antibacterial activity against Staphylococcus epidermidis ATCC 12228 assessed as growth inhibition after 24 hrs by double dilution method; type: functional; details: ATCC 12228, 24 h
[8] = test system: Staphylococcus epidermidis; experiment: Antibacterial activity against Staphylococcus epidermidis ATCC 35984 assessed as growth inhibition after 24 hrs by double dilution method; type: functional; details: ATCC 35984, 24 h
[9] = test system: Staphylococcus aureus; experiment: Antibacterial activity against Staphylococcus aureus ATCC 9144 assessed as growth inhibition after 24 hrs by double dilution method; type: functional; details: ATCC 9144, 24 h
[10] = test system: Enterococcus faecalis; experiment: Antibacterial activity against Enterococcus faecalis ATCC 29212 assessed as growth inhibition after 24 hrs by double dilution method; type: functional; details: ATCC 29212, 24 h
[11] = test system: Enterococcus; experiment: Antibacterial activity against vancomycin-resistant Enterococcus assessed as growth inhibition after 24 hrs by double dilution method; type: functional
[12] = test system: Streptococcus mutans; experiment: Antibacterial activity against Streptococcus mutans UA159 assessed as growth inhibition after 24 hrs by double dilution method; type: functional; details: UA159, 24 h
[13] = test system: Staphylococcus aureus; experiment: Antibacterial activity against Methicillin-resistant Staphylococcus aureus assessed as growth inhibition after 24 hrs by double dilution method; type: functional
[14] = Antibacterial activity against Streptococcus pyogenes serotype M12 strain MGAS9429 assessed as growth inhibition after 24 hrs by double dilution method; type: functional; details: MGAS9429, 24 h
[15] = Induction of hemolysis in rat RBC assessed as hemoglobin release at 64 ug/ml after 1 hr by microplate reader analysis; type: cell-based, Erythrocyte; details: red blood cells, read-out: Activity
[16] = Induction of hemolysis in rat RBC assessed as hemoglobin release at 32 ug/ml after 1 hr by microplate reader analysis; type: cell-based, Erythrocyte; details: red blood cells, read-out: Activity
[17] = test system: Streptococcus pyogenes serotype M12; experiment: Ratio of tobramycin MIC to compound MIC against Streptococcus pyogenes serotype M12 strain MGAS9429 after 24 hrs by double dilution method; type: functional

Structure (SMILES) | Activity [1] | MBIC [2] [µg/mL] | MBIC [3] [µg/mL] | MIC [4] [µg/mL] | MIC [5] [µg/mL] | MIC [6] [µg/mL] | MIC [7] [µg/mL] | MIC [8] [µg/mL] | MIC [9] [µg/mL] | MIC [10] [µg/mL] | MIC [11] [µg/mL] | MIC [12] [µg/mL] | MIC [13] [µg/mL] | MIC [14] [µg/mL] | hemolysis at 1 h, 64 ug/ml [15] [%] | hemolysis at 1 h, 32 ug/ml [16] [%] | Ratio [17]
CCCCCCCCCCCCS(=O)(=O)C[C@H]1O[C@H](O[C@@H]2[C@@H](O)[C@H](O[C@H]3O[C@H](CN)[C@@H](O)C[C@H]3N)[C@@H](N)C[C@H]2N)[C@H](O)[C@@H](N)[C@@H]1O | Toxic | 32 | 16 | > 128 | > 128 | > 128 | 128 (≈ 187 µM) | 64 (≈ 93.6 µM) | 64 (≈ 93.6 µM) | > 128 | 64 (≈ 93.6 µM) | 16 (≈ 23.4 µM) | > 128 | 32 (≈ 46.8 µM) | – | – | –
NC[C@H]1O[C@H](O[C@H]2[C@H](O)[C@@H](O[C@H]3O[C@H](CO)[C@@H](O)[C@H](N)[C@H]3O)[C@H](N)C[C@@H]2N)[C@H](N)C[C@@H]1O [TOBRAMYCIN] | – | 128 | 64 | 32 (≈ 68.4 µM) | 16 (≈ 34.2 µM) | > 128 | < 1 | 128 (≈ 274 µM) | 16 (≈ 34.2 µM) | > 128 | > 128 | 128 (≈ 274 µM) | > 128 | 64 (≈ 137 µM) | – | – | –
CCCCCCCCCCCCCCCCSC[C@H]1O[C@H](O[C@@H]2[C@@H](O)[C@H](O[C@H]3O[C@H](CN)[C@@H](O)C[C@H]3N)[C@@H](N)C[C@H]2N)[C@H](O)[C@@H](N)[C@@H]1O | – | – | – | 64 (≈ 90.4 µM) | 32 (≈ 45.2 µM) | > 128 | 4 (≈ 5.65 µM) | 8 (≈ 11.3 µM) | 16 (≈ 22.6 µM) | 128 (≈ 181 µM) | 64 (≈ 90.4 µM) | 4 (≈ 5.65 µM) | 64 (≈ 90.4 µM) | 4 (≈ 5.65 µM) | 37.9 | – | –
CCCCCCCCCCCCCCCCC(=O)NC[C@H]1O[C@H](O[C@@H]2[C@@H](O)[C@H](O[C@H]3O[C@H](CN)[C@@H](O)C[C@H]3N)[C@@H](N)C[C@H]2N)[C@H](O)[C@@H](N)[C@@H]1O | – | – | – | 32 (≈ 44.5 µM) | 32 (≈ 44.5 µM) | 128 (≈ 178 µM) | 4 (≈ 5.56 µM) | 4 (≈ 5.56 µM) | 8 (≈ 11.1 µM) | 128 (≈ 178 µM) | 32 (≈ 44.5 µM) | 4 (≈ 5.56 µM) | 32 (≈ 44.5 µM) | 8 (≈ 11.1 µM) | 37.9 | – | –
CCCCCCCCCCCCCCSC[C@H]1O[C@H](O[C@@H]2[C@@H](O)[C@H](O[C@H]3O[C@H](CN)[C@@H](O)C[C@H]3N)[C@@H](N)C[C@H]2N)[C@H](O)[C@@H](N)[C@@H]1O | – | 8 | 4 | 32 (≈ 47.1 µM) | 16 (≈ 23.5 µM) | 128 (≈ 188 µM) | 4 (≈ 5.88 µM) | 4 (≈ 5.88 µM) | 8 (≈ 11.8 µM) | 64 (≈ 94.1 µM) | 16 (≈ 23.5 µM) | 2 (≈ 2.94 µM) | 32 (≈ 47.1 µM) | 2 (≈ 2.94 µM) | 74.4 | 23 | 16
CCCCCCCCCCCCCCCCS(=O)(=O)C[C@H]1O[C@H](O[C@@H]2[C@@H](O)[C@H](O[C@H]3O[C@H](CN)[C@@H](O)C[C@H]3N)[C@@H](N)C[C@H]2N)[C@H](O)[C@@H](N)[C@@H]1O | – | – | – | 128 (≈ 173 µM) | 32 (≈ 43.2 µM) | > 128 | 16 (≈ 21.6 µM) | 16 (≈ 21.6 µM) | 8 (≈ 10.8 µM) | 64 (≈ 86.5 µM) | 32 (≈ 43.2 µM) | 8 (≈ 10.8 µM) | 32 (≈ 43.2 µM) | 8 (≈ 10.8 µM) | 37.9 | – | –
